From PubChem BioAssay (NCI)
Several values for one entry are separate records, joined by “and”; a condition that tells them apart may be missing. Identical values can stand only once.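 Method: 48-hour compound exposure of cells in 96-well plates, five concentrations, linear interpolation of endpoints. GI50 is the concentration that inhibits growth by half. TGI is the concentration that stops growth completely.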

Legend:
Assay in all cases: DTP human tumour cell line panel, 48 h
NCI-H460 lung = tested on: NCI-H460 lung
SN12C renal = tested on: SN12C renal
SF-539 CNS = tested on: SF-539 CNS
SW-620 colon = tested on: SW-620 colon
TK-10 renal = tested on: TK-10 renal
SNB-75 CNS = tested on: SNB-75 CNS
MDA-MB-231 breast = tested on: MDA-MB-231 breast
UACC-62 melanoma = tested on: UACC-62 melanoma
K-562 leukemia = tested on: K-562 leukemia
CCRF-CEM leukemia = tested on: CCRF-CEM leukemia

Row | SMILES | TGI (NCI-H460 lung) [µM] | GI50 (SN12C renal) [µM] | TGI (SN12C renal) [µM] | GI50 (SF-539 CNS) | TGI (SF-539 CNS) [µM] | GI50 (SW-620 colon) | TGI (SW-620 colon) [µM] | GI50 (TK-10 renal) | TGI (TK-10 renal) | GI50 (SNB-75 CNS) | TGI (SNB-75 CNS) | GI50 (MDA-MB-231 breast) | TGI (MDA-MB-231 breast) [µM] | TGI (UACC-62 melanoma) | GI50 (K-562 leukemia) | TGI (K-562 leukemia) | GI50 (NCI-H460 lung) | GI50 (CCRF-CEM leukemia) | TGI (CCRF-CEM leukemia) [µM] | GI50 (UACC-62 melanoma)
1 | CCOC(=O)C(Cc1c[nH]c2cc([N+](=O)[O-])ccc12)(NC(C)=O)C(=O)OCC | > 1000 | 401 | > 1000 | 68.3 µM and 84.2 µM | 330 | > 1000 µM | > 1000 | 296 µM | > 760 µM | 93.5 µM and 46.8 µM | 114 µM | 167 µM | > 715 | > 1000 µM |  |  |  |  |  | 
2 | C#CC[C@H](c1nc2cc(Cl)ccc2c(=O)n1Nc1ccccc1)N(CCCN)C(=O)c1cccc(Cl)c1F | 1.31 | 0.205 | 1.98 | 0.183 µM | 0.65 | 0.237 µM | 1.81 | 1.39 µM | 2.8 µM | 0.251 µM | 1.53 µM | 0.107 µM | 0.601 | 2 µM | 0.0968 µM | 1.85 µM | 0.161 µM | 0.134 µM | 1.91 | 0.636 µM
3 | CO/N=C1/NC(=O)/C(=C/c2ccc3ncccc3c2)S1 | > 25 | 16.3 | > 25 | 8.27 µM | > 25 | > 25 µM | > 25 | 8.01 µM | > 25 µM | 4.07 µM | > 25 µM | > 25 µM | > 25 | > 25 µM | > 25 µM | > 25 µM | 9.08 µM | 10.9 µM | > 25 | 8.06 µM
4 | COc1cccc(/C=C/C(=O)c2cc3c(N)c(C(=O)Nc4cccc(Cl)c4C)sc3nc2C)c1 | 4.45 | 1.21 | 3.43 | 0.967 µM | 2.01 | 0.472 µM | 3.85 | 1.53 µM | 8.19 µM | 0.679 µM | > 12.1 µM | 1.13 µM | 2.68 | 3.5 µM | 0.241 µM | > 50 µM | 1.38 µM | 0.234 µM | > 50 | 0.844 µM
5 | CN(/N=N/c1nc(OCc2ccccc2)c2[nH]cnc2n1)C(=O)N(C)/N=N/c1nc(OCc2ccccc2)c2[nH]cnc2n1 | > 100 | 56.6 | > 100 | 38.4 µM | > 100 | 71.7 µM | > 100 | 27.2 µM | > 100 µM | > 100 µM | > 100 µM | 41.2 µM | > 100 | > 100 µM | 75.8 µM | > 100 µM | 26.1 µM | 49.6 µM | > 100 | 30.8 µM
6 | COc1ccc(C2=C(c3cn(C)c4ccccc34)C(=O)NC2=O)cc1OC | > 25 | 8.91 | > 25 | 5.51 µM | > 18.1 | 6.96 µM | > 25 | 9.2 µM | > 25 µM | 0.743 µM | 7.08 µM | 10.7 µM | > 25 | > 25 µM | 4.92 µM | > 25 µM | 8.52 µM | 6.38 µM | > 25 | 8.12 µM
7 | COc1cc(-c2cn(-c3ccc(Cl)cc3)c(=O)[nH]2)cc(OC)c1OC | > 100 | > 100 | > 100 | > 100 µM | > 100 | > 100 µM | > 100 | > 100 µM | > 100 µM | > 100 µM | > 100 µM | > 100 µM | > 100 | > 100 µM | 52.1 µM | > 100 µM | > 100 µM | > 100 µM | > 100 | > 100 µM
8 | Cc1ccc(C(=O)N/N=C/c2cccc(Oc3ccccc3)c2)cn1 | > 100 | 17.3 | > 100 | 10.6 µM | > 59.1 | 4.79 µM | > 100 | 14.4 µM | > 100 µM | 4.85 µM | > 60.7 µM | 22.9 µM | > 100 | > 100 µM | 1.81 µM | > 100 µM | 4.05 µM | 4.25 µM | > 100 | 4.67 µM
9 | COc1ccc(/C=C(\C#N)c2cc(OC)c3c(c2)OCO3)cc1 | 4.28 | 0.0583 | > 100 | < 0.0131 µM | 11.5 | < 0.01 µM | > 100 | 0.56 µM | 41.1 µM | 0.0102 µM |  | 0.0553 µM | 46.3 | > 100 µM | < 0.01 µM | > 100 µM | < 0.01 µM | 0.0226 µM | > 100 | < 0.01 µM
10 | Cc1cc(N/N=C/c2nc(-c3ccccc3)oc2C)c2cc(Cl)ccc2n1 | 3.61 | 1.78 | 3.49 | 1.7 µM | 3.17 | 1.81 µM | 3.7 | 1.79 µM | 3.29 µM | 1.63 µM | 3.34 µM | 1.85 µM | 3.69 | 3.36 µM |  |  | 1.88 µM |  |  | 1.7 µM
11 | Cc1c(CN2CCC(Nc3ncnc4sc(CC(F)(F)F)cc34)CC2)ccc2c1cc(C#N)n2Cc1cn[nH]c1 | 7.31 | 8.76 | 26.4 | 7.37 µM and 15 µM | > 51.4 | 1.81 µM and 2.19 µM | 4.97 | 11.6 µM and > 35.2 µM | 26.2 µM and > 52.3 µM | 8.38 µM and 2.47 µM | 26.1 µM and 27.7 µM | 2.32 µM and 4.04 µM | 7.12 | 24.9 µM and > 44.3 µM | 0.883 µM and 1.14 µM | 4.17 µM and 4.95 µM | 2.19 µM and 2.8 µM | 2.98 µM and 2.97 µM | > 33.7 | 6.53 µM and 8.73 µM
12 | CN(C)CC#Cc1cccc(C(=O)c2cnn(-c3ccc(F)cc3)c2N)c1 | > 25 | > 25 | > 25 | > 25 µM | > 25 | > 25 µM | > 25 | > 25 µM | > 25 µM | 19.6 µM | > 25 µM | > 25 µM | > 25 | > 25 µM | > 17.8 µM | > 25 µM | > 25 µM | > 25 µM | > 25 | > 25 µM
13 | Cn1c(=O)c2[nH]c(COCc3nc4c([nH]3)c(=O)n(C)c(=O)n4C)nc2n(C)c1=O | > 100 |  | > 100 |  | > 100 |  | > 100 |  | > 100 µM |  | > 100 µM |  | > 100 | > 100 µM |  | > 100 µM |  |  | > 100 | 
